Columns and labels:
N. tabacum [1] = assay: Calli regeneration under hygromycin selection after Agrobacterium-mediated transformation of leaves; type: in vivo, Nicotiana tabacum; settings: for Calli regenerated and transplanted: total: 20 leaves transformed
Procedure: Seeds of tobacco cultivar Big Havana were surface-sterilized with a solution containing 1% bleach and 0.05% Tween-80 for about 3 minutes and then rinsed twice with sterile distilled water for about 5 minutes. Surface-sterilized seeds were plated in 100 mm Petri dishes on sterile Whatman® filter paper submersed in 4 ml of liquid MS medium containing varying amounts of CeCl3, LaCl3 and a combination of CeCl3 and LaCl3 and the plants were transferred to a growth chamber for germination. Once germinated, the plants were removed from the growth chamber and grown for a period of one week under conditions of 16-hours light, 22° C. and 8-hours dark, 18° C. The three to five one week old plants were then removed from the 4-ml liquid medium and transferred to single sterile glass 250 ml flasks containing 15 ml of sterile liquid MS media supplemented with varying amounts of CeCl3, LaCl3 and a combination of CeCl3 and LaCl3. Flasks were then installed on shakers at 50-75 rpm. Plants were continuously grown under conditions of 16-hours light, 22° C. and 8-hours dark, 18° C. The growth medium in each flask was replaced weekly with 25 ml of fresh medium. Following a 3-week period, plants were removed from the flasks and 2 to 3 pairs of fully developed fresh leaves about 2-4 cm long were harvested (cut from the plant) for transformation with Agrobacteria.
Experimental groups of tobacco plants were germinated and grown in a liquid medium culture supplemented with varying amounts of CeCl3, LaCl3 and a combination of CeCl3 and LaCl3. Control plants for the transformation experiments were grown in a standard MS-medium that was not supplemented with CeCl3 or LaCl3.
Four weeks post-germination, the tobacco plants were removed from the liquid medium culture. The leaves from the plants were removed, and several parallel incisions were made along the leaves. The leaves were then vacuum infiltrated with an Agrobacterium suspension culture carrying the plasmid with LUC (gene coding for luciferase) and hygromycin (gene coding for the resistance to hygromycin) genes.
The leaves were vacuum-infiltrated twice for about 5 minutes with the Agrobacterium suspension culture using standard procedures known in the art. Following vacuum infiltration, the tobacco leaves were dried for about 5 to 10 minutes on sterile Whatman® filter paper to remove substantially all excess Agrobacterium cells. The leaves were then placed on plates containing MS medium, and each of the plates were placed for in a room for a period of 3 day at a temperature of 22° C. and exposed to a daily regime of 16-hours of light and 8-hours of dark.
Leaves from each of the experimental groups grown on the different media compositions having varying amounts of CeCl3, LaCl3 and a combination of CeCl3 and LaCl3 and the controls were washed with sterile water to remove the […]. To remove traces of growth medium, leaves were blotted on sterile filter paper and then submersed in a Petri dish laid out with Whatman® filter paper containing re-suspended Agrobacterium cells. Each submersed leaf surface was incised using a sharp surgical blade in parallel along the side veins. The distance between the two parallel incisions was about 5-7 mm. The primary leaf vein and leaf margins were left intact. Once cutting was complete, leaves remained submersed for a period of about 10 minutes. Leaves were then removed from the Petri dish and were blotted dry and placed upside-down on plates of MS medium, and were incubated in a dark room at 22° C. for a period of 3 days. Following incubation, leaves were removed from the plates and rinsed with sterile distilled water, blotted dry and transferred onto solid MS medium containing 0.8 mg/L of indole-3-acetic acid (IAA), and 2 mg/L kinetin for calli induction and regeneration, a combination of 100 mg/L ticarcillin and 3 mg/L potassium clavulanate to control Agrobacterium growth, and 25 mg/L hygromycin for selection for transformed cells. […]

N. tabacum [2] = assay: Stable T-DNA integration: LUC expression test of regenerated plantlets; type: in vivo, Nicotiana tabacum; settings: for Calli regenerated and transplanted, LUC expression test: LUC negative / Calli regenerated and transplanted, LUC expression test: LUC positive: 20 leaves transformed
Procedure: The number of transgenic plants, having incorporated a marker gene, regenerated from tobacco calli in various transformation experiments were counted. All the regenerated plants were screened using a luciferase camera. Spraying the transgenic plants with luciferine, the substrate for luciferase enzyme, allowed the identification of transgenic plants expressing the luciferase.
After a period of about 3 to 4 weeks, the number of regenerated calli were determined. Shoots that developed were excised from calli and transferred to a root inducing solid MS medium containing 0.5 mg/L of naphtaleneacetic acid (NAA), 100 mg/L ticarcillin, 3 mg/L potassium clavulanate and 25 mg/L hygromycin. After a 1 to 2 week period of root induction, the plantlets were transplanted to soil.
The effects of CeCl3 on the occurrence of stable plant transformation events in N. tabacum plants were evaluated. These experiments identified transformed plants where the DNA of interest had stably integrated into the plant genome.
The newly appeared plantlets regenerated from the calli of Example 3, showing evidence of root formation, were excised from the calli and transferred to soil.
Plantlets were sprayed with luciferine, and the total number of luciferase-positive plantlets was scored. This allowed the calculation of the transformation frequency, as the number of plants expressing LUC gene to the number of transformed leaves, shown in FIG. 4.
The number of stable transformants re-generated from plants grown on CeCl3 supplemented media and control medium, as detailed in Example 3, were compared.

[3] = 0.1 μM CeCl3, liquid MS, Table 2 experiment
[4] = 0.1 μM CeCl3, liquid MS, second independent experiment (Table 3)
[5] = 0.5 μM CeCl3, liquid MS, Table 2 experiment
[6] = 1.0 μM CeCl3, liquid MS, second independent experiment (Table 3)

[Ce+3].[Cl-].[Cl-].[Cl-] [CeCl3, cerium (III) chloride]
increase in the number of calli regenerated compared to the control medium (N. tabacum [1]; 0.1 μM CeCl3, Table 2 experiment): 1.8 fold
Calli regenerated and transplanted: total (N. tabacum [1]; [3]): 35
Calli regenerated and transplanted: total (N. tabacum [1]; [4]): 48
increase in the number of calli regenerated compared to the control medium (N. tabacum [1]; 0.1 μM CeCl3, second independent experiment (Table 3, FIG. 4)): 2.2 fold
increase in the number of calli regenerated compared to the control medium (N. tabacum [1]; 0.5 μM CeCl3, Table 2 experiment): 2.9 fold
Calli regenerated and transplanted: total (N. tabacum [1]; [5]): 56
Calli regenerated and transplanted: total (N. tabacum [1]; [6]): 73
increase in the number of calli regenerated compared to the control medium (N. tabacum [1]; 1.0 μM CeCl3, second independent experiment (Table 3, FIG. 4)): 3.3 fold
difference in numbers of stable transformants versus control media (N. tabacum [2]; 0.1 μM CeCl3, FIG. 4): 2.0 fold
Calli regenerated and transplanted, LUC expression test: LUC negative (N. tabacum [2]; [3]): 13
Calli regenerated and transplanted, LUC expression test: LUC positive (N. tabacum [2]; [3]): 23
Calli regenerated and transplanted, LUC expression test: LUC negative (N. tabacum [2]; [4]): 13
Calli regenerated and transplanted, LUC expression test: LUC positive (N. tabacum [2]; [4]): 34
Integration frequency (N. tabacum [2]; [3]): 1.15 LUC positive plants/leaf trans
Integration frequency (N. tabacum [2]; [4]): 1.7 LUC positive plants/leaf trans
Calli regenerated and transplanted, LUC expression test: LUC negative (N. tabacum [2]; [5]): 18
Calli regenerated and transplanted, LUC expression test: LUC positive (N. tabacum [2]; [5]): 38
Integration frequency (N. tabacum [2]; [5]): 1.9 LUC positive plants/leaf trans
difference in numbers of stable transformants versus control media (N. tabacum [2]; 1.0 μM CeCl3, FIG. 4): 3.4 fold
Calli regenerated and transplanted, LUC expression test: LUC negative (N. tabacum [2]; [6]): 18
Calli regenerated and transplanted, LUC expression test: LUC positive (N. tabacum [2]; [6]): 57
Integration frequency (N. tabacum [2]; [6]): 2.85 LUC positive plants/leaf trans

Source: patent US20100251415A1, “Composition and Method for Modulating Plant Transformation” (priority 2009, published 2010)
